# The OPERA property sets (Mansouri et al. 2018)
# Details: not given
SMILES,boiling point [°C],melting point [°C],log10 Koc (L/kg),log10 vapour pressure (mmHg),ready biodegradability
FC(F)(F)C(F)(F)C(F)(F)C(F)(F)C(F)(F)C(F)(F)C(F)(F)C(F)(F)F,106,-42,–,–,–
NCCCC(N)C(=O)O (stereo not given),–,140,–,–,–
COC(=O)CCCCCCCCC(=O)OC,–,38,–,–,–
C[Si](C)(C)[Si](C)(C)C,114,13.5,–,–,–
Cc1ccc(NC(=O)N(C)C)cc1Cl,–,148,2.02,-7.44,not readily biodegradable
COC(=O)c1ccc(I)cc1,–,115,–,–,–
CCc1ccc(N)cc1,218,-4.8,–,-0.844,–
FCOC(F)(F)C(F)F,53.6,–,–,2.37,–
CCOC(=O)CN,149,–,–,–,–
CCCCCCCCCF,168,1,–,–,–
c1ccc(P(c2ccccc2)c2ccccc2)cc1,–,80,–,–,–
c1ccc2c(c1)oc1ccccc12,287,86.5,3.91,-2.61,readily biodegradable
OC(CCCN1CCCCC1)(c1ccccc1)c1ccccc1,–,104,–,–,–
CC(=O)c1ccc(C(C)=O)cc1,–,112,–,–,–
c1cnc(N2CCN(Cc3ccc4c(c3)OCO4)CC2)nc1,–,98,–,–,–
CC=C(C)C(C)(C)C,112,–,–,–,–
C1=COCC1,54.5,–,–,2.4,–
CCOC(=O)c1ccccc1C(=O)OCC,295,-40.5,1.84,-2.68,not readily biodegradable
C=COCC(CC)CCCC (stereo not given),–,-100,–,–,not readily biodegradable
Fc1cccc(F)c1-c1nnc(-c2ccccc2Cl)nn1,–,188,–,–,–
CCc1c(C)[nH]c2c1C(=O)C(CN1CCOCC1)CC2 (stereo not given),–,180,–,–,–
c1ccc2cc(Nc3ccc4ccccc4c3)ccc2c1,471,172,–,–,–

SMILES,boiling point [°C],melting point [°C],log10 Koc (L/kg),log10 vapour pressure (mmHg),ready biodegradability
O=C(O)Cc1ccco1,–,68.5,–,–,–
CF,-78.4,-142,–,3.46,–
Clc1ccc(-c2cc(Cl)c(Cl)c(Cl)c2Cl)cc1Cl,–,–,–,-5.79,–
CC(=O)c1c(O)c(C)c(O)c2c1OC1=CC(=O)C(C(C)=O)C(=O)C12C (stereo not given),–,204,–,–,–
Cc1ccc(N=Cc2ccccc2)cc1,318,35,–,–,–
CC(=O)CCC(=O)O,246,33,–,-2.95,–
CC(Oc1ccc(Oc2cnc3cc(Cl)ccc3n2)cc1)C(=O)OCC1CCCO1 (stereo not given),–,64,–,–,–
CNC(=O)Oc1c(C(C)(C)C)cc(C)cc1C(C)(C)C,–,–,–,–,not readily biodegradable
COc1cc2c(c(OC)c1OC)-c1ccc(SC)c(=O)cc1[C@@H](NC(C)=O)CC2,–,193,–,–,–
NC(=O)c1ccccc1F,–,118,–,–,–
Cc1ccc(S(=O)(=O)N(C)N=O)cc1,–,60,–,–,–
O=C(O)c1cc([N+](=O)[O-])ccc1[N+](=O)[O-],–,–,2.3,–,–
COc1cccc(OC)c1C(C)=O,–,69,–,–,–
COc1c(Cl)c(Cl)c(Cl)c(Cl)c1Cl,–,108,–,–,–
CCCC(=O)Oc1c(Br)cc(C#N)cc1Br,–,–,3.03,–,–
C=Cc1ccc(C(C)C)cc1,204,-44.7,–,–,–
CC(C)(C)NC(=O)[C@H]1CC[C@H]2[C@@H]3CC[C@H]4NC(=O)C=C[C@]4(C)[C@H]3CC[C@]12C,–,253,–,–,–
CC1(C)CCCC(=O)C1,180,–,–,–,–
CC(C)=CC1C(C(=O)OCc2coc(Cc3ccccc3)c2)C1(C)C (stereo not given),–,44.2,5,–,–
C[C@H](CCC(=O)O)[C@H]1CC[C@H]2[C@@H]3CC[C@@H]4C[C@H](O)CC[C@]4(C)[C@H]3C[C@H](O)[C@]12C,–,177,–,–,–
CN(C)C(=O)Nc1ccc(Cl)cc1,–,170,1.95,-6.3,–
CCn1c2ccccc2c2ccccc21,–,68,–,-3.66,–

# Same assay, conditions: fish
SMILES,log10 BCF,log10 biotransformation half-life (days)
c1ccc2c(c1)oc1ccccc12,3.18,1.35
C=COCC(CC)CCCC (stereo not given),2.78,–
Clc1ccc(-c2cc(Cl)c(Cl)c(Cl)c2Cl)cc1Cl,–,2.73
COc1c(Cl)c(Cl)c(Cl)c(Cl)c1Cl,4.16,2.67
